Results reported in US8557800B2, “Sphingosine kinase inhibitors” (Apogee Biotechnology Corporation, priority 2005, dated 2013).

Experiments:
NFκB = assay: TNFα-induced NFκB reporter cell line; format: cell-based; details: fibroblasts, TNFα 6 hours
Protocol: FIG. 5. Inhibition of TNFα-induced activation of NFκB by Compound 62. Fibroblasts transfected with a TNFα-responsive promoter linked to luciferase were treated with the indicated concentrations of Compound 62 and then treated with TNFα for 6 hours. The amount of luciferase expressed by the cells was then measured by luminescence. Values represent the mean±sd luciferase activity in triplicate samples in a typical experiment.
The excellent aqueous solubility of Compound 62 allowed it to be evaluated in an NFκB reporter cell line (FIG. 5). Fibroblasts transfected with an NFκB response element linked to luciferase produce high levels of luciferase upon exposure to TNFα.

[1] = test system: retinal vascular permeability in diabetic rats; assay: Diabetic retinopathy, streptozotocin rats; format: in vivo, rat; details: 25 or 75 mg/kg ip 5 days per week, Day 45 to Day 87
Protocol: Male Sprague-Dawley rats weighing 150-175 g were used. Diabetes was produced by intraperitoneal injection of streptozotocin (65 mg/kg in citrate buffer) after overnight fasting. Sham-injected non-diabetic animals were also carried as controls. Blood glucose was measured three days post-injection and animals with blood glucose over 250 mg/dL were used as diabetic rats for the study. Blood glucose levels and body weights were monitored weekly throughout the study. On Day 45, retinal vascular permeability was measured in a group of control and diabetic rats (Antonetti et al., 1998, Diabetes 47: 1953, Barber et al., 2005, Invest Ophthalmol Vis Sci 46: 2210). […] Sections were dewaxed and viewed with an Olympus OM-2 fluorescence microscope fitted with a Sony CLD video camera. Fluorescence intensities of digital images were measured using Leica Confocal Software (Version 2.61, build 1538, LCS Lite, 2004). The average retinal intensity for each eye was then normalized to non-injected controls analyzed in the same manner and to the plasma fluorescence of the animal. Through serial sectioning of the eye, this technique enables quantification of varied vascular permeability in the retina (Antonetti et al., 1998, Diabetes 47: 1953, Barber et al., 2005, Ibid.). […]

MCF-7 (breast, ER+) = assay: Human tumor cell line panel, sulforhodamine B; format: cell-based; details: MCF7, 48 hours, mean ± sd
1025LU (melanoma) = assay: Human tumor cell line panel, sulforhodamine B; format: cell-based; details: 48 hours, mean ± sd
Caco-2 (colon) = assay: Human tumor cell line panel, sulforhodamine B; format: cell-based; details: 48 hours, mean ± sd
T24 (bladder) = assay: Human tumor cell line panel, sulforhodamine B; format: cell-based; details: 48 hours, mean ± sd
EFGR = EFGR (Homo sapiens, UniProt P00533); assay: Kinase selectivity panel; format: biochemical; details: read-out: percent of control activity, EFGR
Protocol: (§1) A common problem with attempts to develop protein kinase inhibitors is the lack of selectivity toward the target kinase since the majority of these compounds interact with nucleotide-binding domains that are highly conserved among kinases. […] The compound was tested at a single concentration of 50 μM.

cRaf = cRaf (Homo sapiens, UniProt P04049); assay: Kinase selectivity panel; format: biochemical; details: read-out: percent of control activity, cRaf
Protocol: as §1

P38 MAP kinase 1 = P38 MAP kinase 1 (Homo sapiens, UniProt Q16539); assay: Kinase selectivity panel; format: biochemical; details: read-out: percent of control activity, P38 MAP kinase 1
Protocol: as §1

Aurora-A = Aurora-A (Homo sapiens, UniProt O14965); assay: Kinase selectivity panel; format: biochemical; details: read-out: percent of control activity, Aurora-A
Protocol: as §1

IKKα = IKKα (Homo sapiens, UniProt O15111); assay: Kinase selectivity panel; format: biochemical; details: read-out: percent of control activity, IKKα
Protocol: as §1

PKBα = PKBα (Homo sapiens, UniProt P31749); assay: Kinase selectivity panel; format: biochemical; details: read-out: percent of control activity, PKBα
Protocol: as §1

Abl = Abl (Homo sapiens, UniProt P00519); assay: Kinase selectivity panel; format: biochemical; details: read-out: percent of control activity, Abl
Protocol: as §1

P38 MAP kinase 2 = P38 MAP kinase 2 (Homo sapiens, UniProt Q15759); assay: Kinase selectivity panel; format: biochemical; details: read-out: percent of control activity, P38 MAP kinase 2
Protocol: as §1

PKBγ = PKBγ (Homo sapiens, UniProt Q9Y243); assay: Kinase selectivity panel; format: biochemical; details: read-out: percent of control activity, PKBγ
Protocol: as §1

Protein kinase C α = Protein kinase C α (Homo sapiens, UniProt P17252); assay: Kinase selectivity panel; format: biochemical; details: read-out: percent of control activity, Protein kinase C α
Protocol: as §1

Protein kinase C ε = Protein kinase C ε (Homo sapiens, UniProt Q02156); assay: Kinase selectivity panel; format: biochemical; details: read-out: percent of control activity, Protein kinase C ε
Protocol: as §1

PDK1 = PDK1 (Homo sapiens, UniProt O15530); assay: Kinase selectivity panel; format: biochemical; details: read-out: percent of control activity, PDK1
Protocol: as §1

PKA = PKA (Homo sapiens, UniProt P17612); assay: Kinase selectivity panel; format: biochemical; details: read-out: percent of control activity, PKA
Protocol: as §1

SK-OV-3 (ovary) = assay: Human tumor cell line panel, sulforhodamine B; format: cell-based; details: 48 hours, mean ± sd
MDA-MB-231 (breast, ER−) = assay: Human tumor cell line panel, sulforhodamine B; format: cell-based; details: 48 hours, mean ± sd
A-498 (kidney) = assay: Human tumor cell line panel, sulforhodamine B; format: cell-based; details: A498, 48 hours, mean ± sd

Sequence of Aurora-A (O14965 whole entry): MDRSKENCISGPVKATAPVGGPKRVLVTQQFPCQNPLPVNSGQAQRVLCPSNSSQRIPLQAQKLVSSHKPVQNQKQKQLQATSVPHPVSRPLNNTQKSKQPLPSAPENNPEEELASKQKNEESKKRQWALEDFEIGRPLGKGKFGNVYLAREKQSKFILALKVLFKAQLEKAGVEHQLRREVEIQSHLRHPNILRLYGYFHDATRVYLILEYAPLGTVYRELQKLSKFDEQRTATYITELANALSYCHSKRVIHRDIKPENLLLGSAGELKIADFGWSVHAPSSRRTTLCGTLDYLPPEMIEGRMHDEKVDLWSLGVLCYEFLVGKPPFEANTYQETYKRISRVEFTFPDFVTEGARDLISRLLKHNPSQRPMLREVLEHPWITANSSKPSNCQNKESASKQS
Sequence of P38 MAP kinase 1 (Q16539 whole entry): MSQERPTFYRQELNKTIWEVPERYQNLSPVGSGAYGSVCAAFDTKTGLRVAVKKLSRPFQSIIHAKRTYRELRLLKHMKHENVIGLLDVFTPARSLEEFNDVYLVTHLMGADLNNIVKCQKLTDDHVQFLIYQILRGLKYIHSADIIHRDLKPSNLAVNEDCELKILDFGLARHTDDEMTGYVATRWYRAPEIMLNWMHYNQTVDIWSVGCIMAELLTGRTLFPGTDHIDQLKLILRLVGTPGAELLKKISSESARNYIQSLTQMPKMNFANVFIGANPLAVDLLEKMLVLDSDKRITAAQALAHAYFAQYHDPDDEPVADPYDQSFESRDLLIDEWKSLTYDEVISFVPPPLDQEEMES
Sequence of Protein kinase C ε (Q02156 whole entry): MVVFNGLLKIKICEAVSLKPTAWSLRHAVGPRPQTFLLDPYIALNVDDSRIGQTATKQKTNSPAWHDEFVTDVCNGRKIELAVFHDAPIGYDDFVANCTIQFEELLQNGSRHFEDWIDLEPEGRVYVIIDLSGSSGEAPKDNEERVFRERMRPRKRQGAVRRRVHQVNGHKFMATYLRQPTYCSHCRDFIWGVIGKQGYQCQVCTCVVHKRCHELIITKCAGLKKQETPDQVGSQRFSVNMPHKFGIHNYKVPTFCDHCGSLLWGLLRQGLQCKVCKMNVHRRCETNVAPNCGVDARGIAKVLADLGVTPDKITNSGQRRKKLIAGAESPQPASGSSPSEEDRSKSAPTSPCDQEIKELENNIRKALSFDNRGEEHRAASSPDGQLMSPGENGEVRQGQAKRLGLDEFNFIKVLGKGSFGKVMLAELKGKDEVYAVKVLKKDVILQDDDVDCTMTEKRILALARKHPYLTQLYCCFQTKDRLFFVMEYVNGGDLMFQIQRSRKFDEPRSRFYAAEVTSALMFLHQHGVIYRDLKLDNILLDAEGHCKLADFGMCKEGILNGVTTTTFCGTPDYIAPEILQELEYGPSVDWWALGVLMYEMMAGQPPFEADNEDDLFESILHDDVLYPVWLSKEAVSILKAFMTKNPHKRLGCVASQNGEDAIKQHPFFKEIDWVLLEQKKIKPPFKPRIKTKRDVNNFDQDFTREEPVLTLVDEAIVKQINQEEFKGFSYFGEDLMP
Sequence of EFGR (P00533 25-1210): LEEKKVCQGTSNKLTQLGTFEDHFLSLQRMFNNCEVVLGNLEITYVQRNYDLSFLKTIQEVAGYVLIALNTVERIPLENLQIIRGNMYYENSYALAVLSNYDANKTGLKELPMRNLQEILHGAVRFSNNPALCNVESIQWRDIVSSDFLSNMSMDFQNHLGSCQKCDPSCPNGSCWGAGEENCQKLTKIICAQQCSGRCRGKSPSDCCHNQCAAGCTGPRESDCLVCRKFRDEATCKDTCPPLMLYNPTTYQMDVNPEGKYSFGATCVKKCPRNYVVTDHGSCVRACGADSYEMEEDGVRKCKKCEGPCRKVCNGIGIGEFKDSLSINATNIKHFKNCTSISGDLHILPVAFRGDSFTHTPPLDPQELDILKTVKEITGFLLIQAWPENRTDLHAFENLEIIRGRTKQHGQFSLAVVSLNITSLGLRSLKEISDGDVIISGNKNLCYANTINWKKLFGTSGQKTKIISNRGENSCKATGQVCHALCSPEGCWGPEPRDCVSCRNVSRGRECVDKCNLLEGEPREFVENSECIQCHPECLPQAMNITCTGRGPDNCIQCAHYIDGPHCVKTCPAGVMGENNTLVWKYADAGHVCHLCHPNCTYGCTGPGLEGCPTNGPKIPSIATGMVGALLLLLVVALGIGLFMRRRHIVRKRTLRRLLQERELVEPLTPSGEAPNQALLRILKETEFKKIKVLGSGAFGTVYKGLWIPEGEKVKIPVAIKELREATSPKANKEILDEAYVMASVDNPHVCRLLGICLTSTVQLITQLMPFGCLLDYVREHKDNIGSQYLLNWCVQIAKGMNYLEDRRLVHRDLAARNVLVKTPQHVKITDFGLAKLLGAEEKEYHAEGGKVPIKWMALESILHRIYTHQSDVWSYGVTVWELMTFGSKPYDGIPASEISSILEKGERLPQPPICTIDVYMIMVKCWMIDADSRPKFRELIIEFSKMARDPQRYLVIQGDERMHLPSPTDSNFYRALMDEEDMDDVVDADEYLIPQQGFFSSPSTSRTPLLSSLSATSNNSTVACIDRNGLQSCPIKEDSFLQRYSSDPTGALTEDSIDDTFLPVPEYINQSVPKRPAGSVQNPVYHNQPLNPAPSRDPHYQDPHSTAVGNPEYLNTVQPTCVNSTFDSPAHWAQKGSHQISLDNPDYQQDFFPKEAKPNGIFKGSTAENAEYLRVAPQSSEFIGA
Sequence of IKKα (O15111 whole entry, species assumed): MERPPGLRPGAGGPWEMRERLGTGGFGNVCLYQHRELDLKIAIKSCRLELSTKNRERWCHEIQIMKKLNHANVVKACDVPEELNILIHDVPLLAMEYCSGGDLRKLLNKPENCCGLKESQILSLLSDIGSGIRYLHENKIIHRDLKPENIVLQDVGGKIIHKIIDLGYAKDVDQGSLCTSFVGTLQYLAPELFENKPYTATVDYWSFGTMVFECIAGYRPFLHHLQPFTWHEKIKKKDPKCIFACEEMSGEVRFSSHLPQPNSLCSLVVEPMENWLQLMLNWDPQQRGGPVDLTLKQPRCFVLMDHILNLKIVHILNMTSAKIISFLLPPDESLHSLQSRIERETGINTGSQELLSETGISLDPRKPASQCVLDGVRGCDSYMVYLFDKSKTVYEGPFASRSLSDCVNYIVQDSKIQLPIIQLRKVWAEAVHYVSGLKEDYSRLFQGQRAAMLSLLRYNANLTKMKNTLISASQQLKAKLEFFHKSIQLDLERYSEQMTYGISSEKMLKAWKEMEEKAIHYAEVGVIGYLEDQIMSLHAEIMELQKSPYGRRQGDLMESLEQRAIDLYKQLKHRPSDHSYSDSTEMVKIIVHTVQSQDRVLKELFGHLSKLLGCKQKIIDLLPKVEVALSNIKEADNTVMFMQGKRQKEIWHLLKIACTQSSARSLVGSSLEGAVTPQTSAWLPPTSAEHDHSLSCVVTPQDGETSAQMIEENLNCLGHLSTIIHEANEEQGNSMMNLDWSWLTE
Sequence of PKBγ (Q9Y243 whole entry, species assumed): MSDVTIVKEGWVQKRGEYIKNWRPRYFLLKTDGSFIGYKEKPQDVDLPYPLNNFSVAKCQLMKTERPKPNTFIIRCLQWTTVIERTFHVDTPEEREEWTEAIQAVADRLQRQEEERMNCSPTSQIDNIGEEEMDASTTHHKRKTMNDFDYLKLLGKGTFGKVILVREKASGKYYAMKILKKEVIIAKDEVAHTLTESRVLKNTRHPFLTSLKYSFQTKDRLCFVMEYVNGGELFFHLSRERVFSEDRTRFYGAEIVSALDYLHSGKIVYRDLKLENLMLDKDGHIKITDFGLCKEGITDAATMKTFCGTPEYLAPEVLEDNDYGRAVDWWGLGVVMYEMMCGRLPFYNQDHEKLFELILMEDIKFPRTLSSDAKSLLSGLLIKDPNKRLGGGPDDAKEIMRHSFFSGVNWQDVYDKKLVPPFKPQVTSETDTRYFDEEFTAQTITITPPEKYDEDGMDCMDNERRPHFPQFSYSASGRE
Sequence of P38 MAP kinase 2 (Q15759 whole entry): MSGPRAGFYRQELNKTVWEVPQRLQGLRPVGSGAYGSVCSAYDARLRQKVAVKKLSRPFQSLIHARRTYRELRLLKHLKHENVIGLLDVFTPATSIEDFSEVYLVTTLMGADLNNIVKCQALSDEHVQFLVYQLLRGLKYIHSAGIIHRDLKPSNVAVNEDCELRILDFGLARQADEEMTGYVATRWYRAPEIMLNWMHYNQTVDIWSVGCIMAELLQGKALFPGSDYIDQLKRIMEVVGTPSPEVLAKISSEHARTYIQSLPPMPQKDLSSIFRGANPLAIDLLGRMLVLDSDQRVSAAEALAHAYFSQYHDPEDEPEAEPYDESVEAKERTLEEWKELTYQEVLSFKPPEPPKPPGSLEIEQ

O=C(NCc1ccncc1)C12CC3CC(C1)CC(c1ccc(Cl)cc1)(C3)C2 [Compound 62, 3-(4-Chloro-phenyl)-adamantane-1-carboxylic acid (pyridin-4-ylmethyl)-amide]
activation of NFκB by TNFα (luciferase) (NFκB): dose-dependently suppressed
FITC-BSA leakage into the retina vs untreated diabetic rats [1]: substantially reduced
IC50 (MCF-7 (breast, ER+)): 18.4 ± 7.4 µM
IC50 (1025LU (melanoma)): 33.7 ± 2.7 µM
IC50 (Caco-2 (colon)): 11.8 ± 5.6 µM
IC50 (T24 (bladder)): 39.4 ± 7.4 µM
remaining activity at 50 µM (EFGR): 101 ± 3%
remaining activity at 50 µM (cRaf): 96 ± 5%
remaining activity at 50 µM (P38 MAP kinase 1): 94 ± 2%
remaining activity at 50 µM (Aurora-A): 103 ± 1%
remaining activity at 50 µM (IKKα): 150 ± 16%
remaining activity at 50 µM (PKBα): 95 ± 2%
remaining activity at 50 µM (Abl): 98%
remaining activity at 50 µM (P38 MAP kinase 2): 109 ± 5%
remaining activity at 50 µM (PKBγ): 105 ± 8%
remaining activity at 50 µM (Protein kinase C α): 86 ± 5%
remaining activity at 50 µM (Protein kinase C ε): 101 ± 1%
remaining activity at 50 µM (PDK1): 116 ± 3%
remaining activity at 50 µM (PKA): 104 ± 5%
IC50 (SK-OV-3 (ovary)): 10.5 ± 2.6 µM
IC50 (MDA-MB-231 (breast, ER−)): 29.1 ± 11.1 µM
IC50 (A-498 (kidney)): 12.2 ± 6 µM
